Assay results: patent publication US11752159B2, “Compositions and methods for suppressing or reducing systemic immune response in a subject” (THE TRUSTEES OF THE UNIVERSITY OF PENNSYLVANIA, priority 2015, dated 2023)

Key:
[1] = test system: Tregs; assay: Treg % in blood and spleen after topical vitamin D3 analogs; format: in vivo, mice; details: topical 0.04 nmol/ear
From the text: FIGS. 10A-10B comprise bar graphs illustrating data derived from topically treating mice with EtOH or EB1089 (0.04 nmol/ear) for 5 days and bleeding them on Day 7. Treg % from (FIG. 10A) blood and (FIG. 10B) spleen are illustrated. N=3 mice/group. *p<0.01 by Student t-test.
(§1) VDR stimulation of keratinocytes led to TSLP production, which in certain embodiments caused increase in Treg numbers. The effects of two vitamin D3 analogs (22-Oxacalcitriol, also known as 22-OXA, and EB1089) on TSLP production and Treg numbers were evaluated. Similarly to MC903, 22-OXA and EB1089 were applied to the ear skin bilaterally at a dose of 2 nmol/ear dissolved in ethanol. After 5 days of treatment, the mice were bled and serum TSLP levels were measured. […] To avoid the toxic effect, the dose of 22-OXA and EB1089 was lowered to a point where morbidity and mortality of mice was not observed (0.4 nmol/ear for 22-OXA; 0.04 nmol/ear for EB1089). At this dose, no increase in TSLP level was detected in 22-OXA-treated mice (FIG. 9B).

[2] = Toxicity (morbidity and mortality) of topical vitamin D3 analogs in mice; format: in vivo; details: for dose at which morbidity and mortality of mice was not observed: topical; for toxicity at 2 nmol/ear: topical 2 nmol/ear
Procedure: as §1

[3] = test system: TSLP; assay: Systemic TSLP induction by topical vitamin D3 analogs (ELISA); format: in vivo, mice; details: for serum TSLP levels: topical, ear skin bilaterally, 2 nmol/ear in ethanol, after 5 days of treatment

Row | Structure (SMILES) | blood Tregs [1] | splenic Treg numbers [1] | dose at which morbidity and mortality of mice was not observed [2] [nmol/ear] | toxicity at 2 nmol/ear [2] | TSLP level at 0.04 nmol/ear ([3]; topical 0.04 nmol/ear) | serum TSLP levels [3] | TSLP level at 0.4 nmol/ear ([3]; topical 0.4 nmol/ear)
1 | C=C1/C(=C\C=C2/CCC[C@]3(C)[C@@H]([C@H](C)/C=C/C=C/C(O)(CC)CC)CC[C@@H]23)C[C@@H](O)C[C@@H]1O [EB1089, 1(S),3(R)-dihydroxy-20(R)-(5′-ethyl-5′-hydroxy-hepta-1′(E),3′(E)-dien-1′-yl)-9,10-secopregna-5(Z),7(E),10(19)-triene] | only a subtle increase | did not have any effect | 0.04 | toxicity-related morbidity and mortality | some TSLP was detectable | induced detectable amounts of TSLP | 
2 | C=C1/C(=C\C=C2/CCC[C@]3(C)[C@@H]([C@H](C)OCCC(C)(C)O)CC[C@@H]23)C[C@@H](O)C[C@@H]1O [22-OXA, 22-oxa-1α,25(OH)2D3] |  |  | 0.4 | toxicity-related morbidity and mortality |  | induced detectable amounts of TSLP | no increase
